Literature values as cited in patent US20080096915A1, “COMPOSITIONS FOR THE TREATMENT OF METABOLIC DISORDERS” (Greenberg Traurig LLP, priority 2005, published 2008).
One block for each molecule: values may come before it.

Columns and labels:
[1] = tested on: hypertensives; set-up: dose or concentration left out as unconfirmed; settings: 1050 hypertensives, for three months, dose doubled in one third; decreased from 176/104
[2] = tested on: patients whose blood pressure had not been normalized; settings: cicletanine 50 and 100 mg per day added to calcium channel blockers, beta blockers or ACE inhibitors
[3] = tested on: healthy subjects
[4] = tested on: patients; settings: 150-200 mg/day cicletanine, over 12 months; fell from 128
[5] = tested on: Dahl salt-sensitive rats with salt-induced hypertension
[6] = molecular target: sulfonylurea receptor (Homo sapiens, UniProt Q09428)
Sequence of sulfonylurea receptor (Q09428 whole entry): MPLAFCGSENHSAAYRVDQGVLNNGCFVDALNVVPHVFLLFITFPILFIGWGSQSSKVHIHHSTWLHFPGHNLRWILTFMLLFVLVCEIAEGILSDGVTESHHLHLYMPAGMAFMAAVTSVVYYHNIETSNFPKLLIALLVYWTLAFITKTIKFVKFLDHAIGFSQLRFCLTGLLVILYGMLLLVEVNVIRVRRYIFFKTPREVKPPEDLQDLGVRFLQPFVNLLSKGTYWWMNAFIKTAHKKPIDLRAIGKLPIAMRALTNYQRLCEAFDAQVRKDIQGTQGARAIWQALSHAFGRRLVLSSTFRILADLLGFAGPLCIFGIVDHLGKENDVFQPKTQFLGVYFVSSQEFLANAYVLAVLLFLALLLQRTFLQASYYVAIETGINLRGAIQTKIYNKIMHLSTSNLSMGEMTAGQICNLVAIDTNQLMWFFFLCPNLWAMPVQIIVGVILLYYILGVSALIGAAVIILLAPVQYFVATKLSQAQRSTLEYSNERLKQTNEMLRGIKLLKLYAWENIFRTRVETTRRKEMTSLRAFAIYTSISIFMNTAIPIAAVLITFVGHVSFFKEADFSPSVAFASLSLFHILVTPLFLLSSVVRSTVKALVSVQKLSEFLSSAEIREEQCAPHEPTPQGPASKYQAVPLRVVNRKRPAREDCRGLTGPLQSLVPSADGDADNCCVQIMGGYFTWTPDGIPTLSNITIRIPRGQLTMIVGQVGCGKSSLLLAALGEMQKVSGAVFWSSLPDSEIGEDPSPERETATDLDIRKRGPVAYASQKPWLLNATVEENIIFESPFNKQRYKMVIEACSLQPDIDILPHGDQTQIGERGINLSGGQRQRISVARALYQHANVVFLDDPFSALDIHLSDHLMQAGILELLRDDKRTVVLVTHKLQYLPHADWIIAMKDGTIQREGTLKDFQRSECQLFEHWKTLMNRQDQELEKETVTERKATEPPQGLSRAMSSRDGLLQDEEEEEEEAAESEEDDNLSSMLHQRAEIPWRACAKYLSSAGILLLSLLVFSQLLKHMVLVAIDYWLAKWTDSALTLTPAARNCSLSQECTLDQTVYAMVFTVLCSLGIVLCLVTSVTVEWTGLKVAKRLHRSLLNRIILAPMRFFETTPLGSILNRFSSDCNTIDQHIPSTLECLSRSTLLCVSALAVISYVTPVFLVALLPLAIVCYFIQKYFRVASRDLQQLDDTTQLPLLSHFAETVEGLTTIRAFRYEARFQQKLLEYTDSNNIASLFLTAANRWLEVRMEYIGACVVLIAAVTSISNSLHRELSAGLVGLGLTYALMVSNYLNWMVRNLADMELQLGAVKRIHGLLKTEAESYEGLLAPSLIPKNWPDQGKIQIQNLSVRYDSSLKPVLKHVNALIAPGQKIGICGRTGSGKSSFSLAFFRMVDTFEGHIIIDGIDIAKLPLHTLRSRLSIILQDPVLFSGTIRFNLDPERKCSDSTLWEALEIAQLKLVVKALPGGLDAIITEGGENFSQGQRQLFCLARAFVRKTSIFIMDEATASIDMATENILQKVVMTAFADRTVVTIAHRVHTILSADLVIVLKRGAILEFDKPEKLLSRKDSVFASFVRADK
Sequence of sulfonylurea receptor (Q14654 whole entry partner): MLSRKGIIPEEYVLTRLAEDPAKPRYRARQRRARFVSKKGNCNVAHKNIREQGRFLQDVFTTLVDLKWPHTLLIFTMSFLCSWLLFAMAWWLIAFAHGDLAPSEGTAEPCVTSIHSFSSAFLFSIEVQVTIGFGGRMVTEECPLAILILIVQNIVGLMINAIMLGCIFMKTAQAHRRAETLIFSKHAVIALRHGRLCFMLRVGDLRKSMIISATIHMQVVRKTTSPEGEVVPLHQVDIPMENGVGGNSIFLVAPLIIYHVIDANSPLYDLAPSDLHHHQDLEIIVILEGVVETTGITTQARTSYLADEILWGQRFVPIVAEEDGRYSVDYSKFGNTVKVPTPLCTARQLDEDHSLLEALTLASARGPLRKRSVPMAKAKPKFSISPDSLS

[7] = in vivo

SMILES: Cc1ncc2c(c1O)COC2c1ccc(Cl)cc1 (racemic) [cicletanine, +−3-(4-chlorophenyl)-1,3-dihydro-6-methylfuro-[3,4-c]pyridin-7-ol]
blood pressure after treatment [1]: 151/86
patients whose blood pressure was normalized [2]: 50 % of patients
peak insulin response to tolbutamide, following cicletanine administration ([3]; 10 healthy subjects, single intravenous tolbutamide after 7 days of cicletanine 100 mg per day): 17.4 mU/L
hypoglycemic effect of tolbutamide following cicletanine administration ([3]; after 7 days of cicletanine 100 mg per day): did not change
average triglyceride level after treatment [4]: 104 mg/dL
high-density lipoprotein (HDL) cholesterol [5]: increased
low-density lipoprotein (LDL) cholesterol [5]: significantly decreased

concentration range that saturates receptors [6]: low nanomolar
SMILES: Cc1cnc(C(=O)NCCc2ccc(S(=O)(=O)NC(=O)NC3CCCCC3)cc2)cn1 [glipizide]

plasma half-life [7]: 4 to 11 h
SMILES: COc1ccc(Cl)cc1C(=O)NCCc1ccc(S(=O)(=O)NC(=O)NC2CCCCC2)cc1 [glyburide]

SMILES: CCCCNC(=O)NS(=O)(=O)c1ccc(C)cc1 [tolbutamide]
peak insulin response to tolbutamide, before cicletanine administration ([3]; 10 healthy subjects, single intravenous dose of tolbutamide alone): 29.2 mU/L
